Where only a bound is given, the exact number is not on record here.

Results on 51 compounds are retold here after patent US11266640B2, “Polycyclic compound acting as IDO inhibitor and/or IDO-HDAC dual inhibitor” (Hangzhou Innogate Pharma Co., Ltd., priority 2017, dated 2022).

This experiment deals with T1, IDO (Homo sapiens, UniProt P14902).
T1 construct: endogenous in cells; host or cells: HeLa cells treated with IFNγ
T1 sequence (P14902 whole entry): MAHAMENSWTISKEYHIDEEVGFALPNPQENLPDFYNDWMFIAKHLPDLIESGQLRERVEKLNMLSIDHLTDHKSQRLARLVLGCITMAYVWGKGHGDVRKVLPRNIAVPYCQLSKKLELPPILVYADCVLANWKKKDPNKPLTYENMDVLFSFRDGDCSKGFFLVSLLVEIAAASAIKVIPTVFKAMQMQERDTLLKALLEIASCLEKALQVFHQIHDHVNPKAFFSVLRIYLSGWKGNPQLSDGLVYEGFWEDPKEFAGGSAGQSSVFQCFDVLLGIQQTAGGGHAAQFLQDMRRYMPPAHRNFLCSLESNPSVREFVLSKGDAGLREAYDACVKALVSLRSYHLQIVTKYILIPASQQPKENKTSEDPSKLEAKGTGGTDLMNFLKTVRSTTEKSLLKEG
Nature of the experiment: Hela cell-based IDO inhibitory activity test (IFNγ added). Particulars: Hela cells with IFNγ, 48 hours incubation, OD 480 nm. The procedure:
2. Hela Cell-Based IDO Inhibitory Activity Test Method
The first step: cell plating. Prepare complete medium and mix well. Cell lines that are in good growth state are selected. Remove the cell culture flask from the incubator and check the cell name, media type and cell generation number on the bottle. The medium was discarded, digested with trypsin, and after digestion, the cells were neutralized with serum-containing medium, and the cells were blown to cause the cells to fall off. Pipette the cell suspension into a centrifuge tube and centrifuge at a speed of 800-1000 for 3-5 minutes. Aspirate the cell supernatant from the centrifuge tube. Add an appropriate volume of medium to the tube and gently blister to resuspend the cells. Count using a Vi-Cell XR cytometer. Adjust the cell suspension to the appropriate concentration. The cell suspension was added to a white-well 96-well plate at 80 μl/well according to the schematic below. The second step: preparation and addition of the compound. Compounds were formulated in DMSO at 600 μM and the compounds were diluted in DMSO according to a multiple of the following table to give 6 concentration gradients of the compound. The 200× compound prepared in DMSO was formulated into a 10× dilution solution in proportion to the corresponding cell culture medium. After 24 hours of cell seeding, 10 μL of 10× corresponding compound dilution and 10 μL of 10×IFNγ were added to each well. Incubate for 48 hours in a 37° C. incubator. The third step: detection and analysis. Cell morphology was observed under an inverted microscope. 80 μL of the supernatant was added to a 3894 plate, 10 μL of 6.1 N trichloroacetic acid was added to each well, shaken for 2 minutes, and placed in a 50-degree incubator for 30 minutes. Centrifuge, 2500 rpm for 10 minutes.
Take 70 μL of the supernatant and transfer to a 3635 UV plate, add 70 μL of the reaction solution, and shake for 2 minutes to make the reaction uniform. Use EnSpire (PE) to detect data with an OD of 480 nm. The cell culture plate 3903 was allowed to stand at room temperature for 30 minutes. 100 μL/well of the cell activity detecting reagent was added to the culture plate. Mix on a shaker for 2 minutes to induce cell lysis. The 96-well plate was allowed to stand at room temperature for 10 minutes to stabilize the luminescence signal. Paste the white base film on the bottom of the plate and tested with Flexstation3 plate (the relevant setting is: Illumination, integration time 500 ms). Record the experimental results obtained from the analysis.
The IC50 value is expressed in the following manner: […]
By IC50 is commonly meant the concentration that gives 50% inhibition. With `CC#Cc1ccc(NC(=O)C(C)[C@H]2C[C@H]3C[C@@H](c4ccnc5ccc(F)cc45)C[C@H]3C2)nc1` (stereo partly drawn) [Compound 82], the IC50 was greater than 100 nM. The result for `O=C(Nc1ccc(Cl)cc1)N1C[C@H]2C[C@@H](c3ccnc4ccc(F)cc34)C[C@H]2C1` [Compound 48] reads greater than 100 nM; that for `O=C(C[C@H]1C[C@H]2CC(c3ccnc4ccc(F)cc34)C[C@H]2C1)Nc1ccc2[nH]ncc2c1` (stereo partly drawn) [Compound 14], greater than 100 nM. `O=C(C[C@@H]1C[C@@H]2CC(c3ccncc3F)=C[C@@H]2C1)Nc1ccc(Cl)cc1` [Compound 53] registered an IC50 greater than 100 nM. The same measure for `C#Cc1ccc(NC(=O)C[C@@H]2C[C@H]3CC(c4ccnc5ccc(F)cc45)C[C@H]3C2)nc1` (stereo partly drawn) [Compound 25]: no more than 5 nM. `CC(C(=O)Nc1cncc(Cl)c1)[C@H]1C[C@H]2C[C@@H](c3ccnc4ccc(F)cc34)C[C@H]2C1` (stereo partly drawn) [Compound 35] gave an IC50 of 5 to 25 nM. The result for `N#Cc1ccc(NC(=O)C[C@@H]2C[C@@H]3CC(c4ccnc5ccc(F)cc45)=C[C@@H]3C2)cn1` (relative stereo) [Compound 101] reads 5 to 25 nM; that for `CC(C(=O)Nc1ccc(C#CC(C)(C)O)cn1)[C@H]1C[C@H]2C[C@@H](c3ccnc4ccc(F)cc34)C[C@H]2C1` (stereo partly drawn) [Compound 77], no more than 5 nM. The same measure for `CC(C(=O)Nc1ccc(Cl)nn1)[C@H]1C[C@H]2C[C@@H](c3ccnc4ccc(F)cc34)C[C@H]2C1` (stereo partly drawn) [Compound 29]: 25 to 100 nM; for `CC(C)(C(=O)Nc1ccc(Cl)cn1)N1C[C@H]2C[C@@H](c3ccnc4ccc(F)cc34)C[C@H]2C1` [Compound 100]: greater than 100 nM. The same measure for `O=C(C[C@]1(O)C[C@H]2C[C@@H](c3ccnc4ccc(F)cc34)C[C@H]2C1)Nc1ccc(Cl)cc1` [Compound 58]: 5 to 25 nM; for `C#Cc1ccc(NC(=O)C[C@H]2C[C@H]3CC(c4ccnc5ccc(F)cc45)C[C@H]3C2)cc1` (stereo partly drawn) [Compound 19]: no more than 5 nM. With `O=C(C[C@@H]1C[C@@H]2CC(c3ccnc4ccc(F)cc34)=C[C@@H]2C1)Nc1ccc(Cl)nc1` (racemic) [Compound 62], the IC50 is no more than 5 nM. Turning to `O=C(C[C@@H]1C[C@@H]2C[C@@H](N3CCCc4ccccc43)C[C@@H]2C1)Nc1ccc(Cl)cc1` [Compound 52], the IC50 was greater than 100 nM.

Compound `CC(C(=O)Nc1ccc(I)cn1)C1C[C@H]2CC(c3ccnc4ccc(F)cc34)C[C@H]2C1` (stereo partly drawn) [Compound 76] had an IC50 of no more than 5 nM. The result for `CC(C(=O)Nc1ccc(C(F)(F)F)nc1)[C@H]1C[C@H]2C[C@@H](c3ccnc4ccc(F)cc34)C[C@H]2C1` (stereo partly drawn) [Compound 80] reads no more than 5 nM; that for `O=C(Nc1ccc(Cl)cc1)C(=O)N1C[C@H]2C[C@@H](c3ccnc4ccc(F)cc34)C[C@H]2C1` [Compound 47], 25 to 100 nM; that for `C#Cc1ccc(NC(=O)C[C@@H]2C[C@H]3CC(c4ccnc5ccc(F)cc45)C[C@H]3C2)cn1` (stereo partly drawn) [Compound 24], no more than 5 nM.

For `O=C(C[C@H]1C[C@@H]2CC(c3ccncc3F)=C[C@@H]2C1)Nc1ccc(Cl)cc1` [Compound 54], the IC50 was greater than 100 nM.

Turning to `CC#Cc1ccc(NC(=O)C(C)[C@H]2C[C@H]3C[C@@H](c4ccnc5ccc(F)cc45)C[C@H]3C2)cn1` (stereo partly drawn) [Compound 83], the IC50 was greater than 100 nM. The same measure for `C#Cc1ccc(NC(=O)C[C@@H]2C[C@@H]3CC(c4ccnc5ccc(F)cc45)=C[C@@H]3C2)cn1` [Compound 64]: no more than 5 nM; for `O=C(C[C@@H]1C[C@@H]2C[C@@]3(c4ccnc5ccc(F)cc45)O[C@H]3[C@@H]2C1)Nc1ccc(Cl)cc1` [Compound 49]: 5 to 25 nM; for `CC(C(=O)Nc1ccc(Cl)cn1)N1C[C@H]2C[C@@H](c3ccnc4ccc(F)cc34)C[C@H]2C1` (stereo partly drawn) [Compound 99]: 5 to 25 nM. The result for `O=C(C[C@@]1(F)C[C@H]2C[C@@H](c3ccnc4ccc(F)cc34)C[C@H]2C1)Nc1ccc(Cl)cc1` [Compound 59] reads 5 to 25 nM; that for `N#Cc1ccc(NC(=O)C2([C@H]3C[C@H]4C[C@@H](c5ccnc6ccc(F)cc56)C[C@H]4C3)CC2)nc1` [Compound 98], no more than 5 nM. The result for `COC(=O)c1ccc(NC(=O)C(C)[C@H]2C[C@H]3C[C@@H](c4ccnc5ccc(F)cc45)C[C@H]3C2)cc1` (stereo partly drawn) [Compound 8] reads 5 to 25 nM; that for `C#Cc1ccc(NC(=O)C[C@@H]2C[C@@H]3CC(c4ccnc5ccc(F)cc45)=C[C@@H]3C2)nc1` [Compound 63], no more than 5 nM; that for `CC(C(=O)Nc1ccc(C(F)(F)F)cn1)[C@H]1C[C@H]2C[C@@H](c3ccnc4ccc(F)cc34)C[C@H]2C1` (stereo partly drawn) [Compound 81], 5 to 25 nM. Regarding `CC(C(=O)Nc1ccc(Cl)cc1)[C@H]1C[C@]2(C)C[C@H](c3ccnc4ccc(F)cc34)C[C@]2(C)C1` (stereo partly drawn) [Compound 41], the IC50 fell in the range of 5 to 25 nM. The result for `O=C(Nc1ccc(Cl)cn1)C1C[C@@H]2C[C@H](c3ccnc4ccc(F)cc34)C[C@@H]2C1` (single isomer, unassigned) [Compound 108] reads 5 to 25 nM. The same measure for `CC(C(=O)Nc1ccc(Cl)nc1)C1=C[C@H]2C[C@@H](c3ccnc4ccc(F)cc34)C[C@H]2C1` (stereo partly drawn) [Compound 39]: no more than 5 nM; for `C#Cc1ccc(NC(=O)C[C@@H]2C[C@@H]3C[C@H](c4ccnc5ccc(F)cc45)C[C@@H]3C2)cn1` [Compound 66]: no more than 5 nM. The result for `O=C(Nc1ccc(Cl)cc1)O[C@@H]1C[C@@H]2C[C@H](c3ccnc4ccc(F)cc34)C[C@@H]2C1` [Compound 106] reads greater than 100 nM; that for `CC(C(=O)Nc1ccc(O)nc1)[C@H]1C[C@H]2C[C@@H](c3ccnc4ccc(F)cc34)C[C@H]2C1` (stereo partly drawn) [Compound 28], greater than 100 nM. The compound `N#Cc1ccc(NC(=O)C[C@@H]2C[C@H]3CC(c4ccnc5ccc(F)cc45)C[C@H]3C2)cc1` (stereo partly drawn) [Compound 23] gave an IC50 of no more than 5 nM. Regarding `N#Cc1ccc(NC(=O)C[C@@H]2C[C@@H]3CC(c4ccnc5ccc(F)cc45)=C[C@@H]3C2)nc1` (racemic) [Compound 69], the IC50 was no more than 5 nM.

As for `O=C(C[C@@H]1C[C@H]2CC(c3ccnc4ccc(F)cc34)C[C@H]2C1)Nc1ccc(Cl)cn1` (stereo partly drawn) [Compound 21], the IC50 lay in the range of 5 to 25 nM. The same measure for `Cn1nc(C2=C[C@@H]3C[C@H](CC(=O)Nc4ccc(Cl)cc4)C[C@@H]3C2)c2ccccc21` [Compound 55]: greater than 100 nM; for `CC(C(=O)Nc1ccc(Cl)cc1)N1C[C@H]2C[C@@H](c3ccnc4ccc(F)cc34)C[C@H]2C1` (stereo partly drawn) [Compound 44]: no more than 5 nM; for `C#Cc1ccc(NC(=O)C(C)[C@H]2C[C@H]3C[C@@H](c4ccnc5ccc(F)cc45)C[C@H]3C2)cn1` (stereo partly drawn) [Compound 37]: no more than 5 nM. The same measure for `C#Cc1ccc(NC(=O)[C@H](C)[C@@H]2C[C@H]3CC(c4ccnc5ccc(F)cc45)C[C@H]3C2)nc1` (stereo partly drawn) [Compound 75]: 5 to 25 nM; for `O=C(Nc1ccc(Cl)cn1)C1C[C@@H]2C[C@H](c3ccnc4ccc(F)cc34)C[C@@H]2C1` (single isomer, unassigned) [Compound 107]: greater than 100 nM.

`CC(C(=O)Nc1ccc(C#N)cc1)[C@H]1C[C@H]2C[C@@H](c3ccnc4ccc(F)cc34)C[C@H]2C1` (stereo partly drawn) [Compound 36] gave an IC50 of no more than 5 nM. Take `C#Cc1ccc(NC(=O)C[C@@H]2C[C@H]3CC(c4ccnc5ccc(F)cc45)C[C@H]3C2)cc1` (stereo partly drawn) [Compound 20]: the IC50 was no more than 5 nM. The same measure for `C[C@@H](C(=O)Nc1ccc(Cl)cn1)[C@H]1C[C@H]2CC(c3ccnc4ccc(F)cc34)C[C@H]2C1` (single isomer, unassigned) [Compound 26A]: no more than 5 nM.

Take `CC(C(=O)Nc1ccc(C#CC(C)(C)O)cn1)[C@@H]1C[C@H]2C[C@@H](c3ccnc4ccc(F)cc34)C[C@H]2C1` (stereo partly drawn) [Compound 78]: the IC50 lay in the range of 25 to 100 nM. As for `CC(C(=O)Nc1cnc(N)nc1)[C@H]1C[C@H]2C[C@@H](c3ccnc4ccc(F)cc34)C[C@H]2C1` (stereo partly drawn) [Compound 30], the IC50 is greater than 100 nM.

Turning to `C#Cc1ccc(NC(=O)C2([C@H]3C[C@H]4C[C@@H](c5ccnc6ccc(F)cc56)C[C@H]4C3)CC2)cn1` [Compound 97], the IC50 fell in the range of 5 to 25 nM. The same measure for `O=C(C[C@H]1C[C@H]2CC(c3ccnc4ccc(F)cc34)C[C@H]2C1)Nc1ccc2c(c1)OC(F)(F)O2` (stereo partly drawn) [Compound 16]: greater than 100 nM.

Turning to `O=C(CN1C[C@H]2C[C@@H](c3ccnc4ccc(F)cc34)C[C@H]2C1)Nc1ccc(Cl)cc1` [Compound 46], the IC50 is 25 to 100 nM.

Consider `CC(C(=O)Nc1ccc(F)c(Br)c1)[C@H]1C[C@H]2C[C@@H](c3ccnc4ccc(F)cc34)C[C@H]2C1` (stereo partly drawn) [Compound 33], for which the IC50 fell in the range of 25 to 100 nM.
